Results from ChEMBL document CHEMBL1208777, “Synthesis of novel oxime-containing pyrazole derivatives and discovery of regulators for apoptosis and autophagy in A549 lung cancer cells” (Bioorg Med Chem Lett, 2010).
Activity calls are given as the source filed them. No cut-off for these calls is given here.

Key:
A549 [1] = test: Cytotoxicity against human A549 cells after 48 hrs by SRB assay; assay type: functional, cell-based; details: for IC50: A549, 48 h
A549 [2] = test: Cytotoxicity against human A549 cells at 10 to 40 uM by SRB assay; assay type: functional, cell-based; details: TDE = time-dependent effect
A549 [3] = test: Induction of apoptosis in human A549 cells assessed as occurrence of nuclear granulation at 10 to 40 uM after 48 hrs by Hoechst 33258 staining-based fluorescence microscopy; assay type: functional, cell-based
A549 [4] = test: Induction of necrosis in human A549 cells assessed as LDH release at 40 uM after 48 hrs; assay type: functional, cell-based
A549 [5] = test: Anticancer activity against human A549 cells assessed as occurrence of autophagy at 10 to 40 uM after 48 hrs by acridine orange staining-based fluorescence microscopy; assay type: functional, cell-based
A549 [6] = test: Anticancer activity against human A549 cells assessed as increase in autophagosome level at 40 uM after 24 hrs by Western blot analysis; assay type: functional, cell-based
A549 [7] = test: Anticancer activity against human A549 cells assessed as increase in autophagosome level at 20 uM after 24 hrs by Western blot analysis; assay type: functional, cell-based
A549 [8] = test: Cytotoxicity against human A549 cells at 10 uM after 48 hrs by SRB assay; assay type: functional; details: A549, 48 h
A549 [9] = test: Cytotoxicity against human A549 cells at 20 uM after 48 hrs by SRB assay; assay type: functional; details: A549, 48 h
A549 [10] = test: Cytotoxicity against human A549 cells at 40 uM after 48 hrs by SRB assay; assay type: functional; details: A549, 48 h

SMILES	Activity (A549 [1])	IC50 (A549 [1])	Activity (A549 [2])	Activity (A549 [3])	Activity (A549 [4])	Activity (A549 [5])	Activity (A549 [6])	Activity (A549 [7])	inhibition at 10 µM (A549 [8])	inhibition at 20 µM (A549 [9])	inhibition at 40 µM (A549 [10])
CCOC(=O)c1cc(-c2ccc(OC)cc2)nn1C/C(=N/O)c1ccc(Cl)cc1	Dose-dependent effect	16.3 µM	tde	Active	inactive	Active	Active				
CCOC(=O)c1cc(-c2ccc(Cl)cc2)nn1C/C(=N/O)c1ccccc1	Dose-dependent effect	31.4 µM	tde	Active	inactive	Active	Active				
CCOC(=O)c1cc(-c2ccc(Cl)cc2)nn1C/C(=N/O)c1ccc(OC)cc1	Dose-dependent effect	17.8 µM	tde		inactive	Active	Active				
CCOC(=O)c1cc(-c2ccccc2)nn1C/C(=N/O)c1ccc(Cl)cc1	Dose-dependent effect	26.3 µM	tde	Active	inactive	Active		Active			
CCOC(=O)c1cc(-c2ccc(OC)cc2)nn1C/C(=N/O)c1ccc(OC)cc1	Dose-dependent effect	36.5 µM	tde		inactive	Active	Active				
CCOC(=O)c1cc(-c2ccccc2)nn1C/C(=N/O)c1ccccc1	Dose-dependent effect	29.8 µM	tde	Active	inactive						
CCOC(=O)c1cc(-c2ccc(OC)cc2)nn1C/C(=N/O)c1ccccc1	Dose-dependent effect	42.7 µM	tde	Active	inactive						
CCOC(=O)c1cc(-c2ccc(Cl)cc2)nn1C/C(=N/O)c1ccc(Cl)cc1	Dose-dependent effect	14.6 µM	tde	Active	inactive	Active		Active	58.6%	51.9%	10.3%
CCOC(=O)c1cc(-c2ccccc2)nn1C/C(=N/O)c1ccc(OC)cc1	Dose-dependent effect	29.1 µM	tde		inactive		inactive				
